Reference: patent publication US8183252B2, “Heterocyclic aspartyl protease inhibitors” (Schering Corporation, priority 2007, dated 2012)
Read-outs that look alike come from different tables or passages of the source.

Biological target: T1, human BACE1 (sproBACE1) (Homo sapiens, UniProt P56817)
T1 construct: sBACE1, corresponding to amino acids 1-454; made in house; host or cells: Sf9 insect cells (baculovirus), secreted into the medium
Assay: BACE-1 Peptide Hydrolysis Assay (HTRF)
Assay type: biochemical
Text: A HindIII/PmeI fragment from pCDNA4-sBACE1myc/His was blunt ended using Klenow and subcloned into the Stu I site of PFASTBACI(A) (Invitrogen). A sBACE1mycHis recombinant bacmid was generated by transposition in DH10Bac cells (GIBCO/BRL). Subsequently, the sBACE1mycHis bacmid construct was transfected into sf9 cells using CellFectin (Invitrogen, San Diego, Calif.) in order to generate recombinant baculovirus. […] Five milliliters of high titer plaque purified sBACEmyc/His virus was used to infect 1 L of logarithmically growing sf9 cells for 72 hours. Intact cells were pelleted by centrifugation at 3000×g for 15 minutes. The supernatant, containing secreted sBACE1, was collected and diluted 50% v/v with 100 mM HEPES, pH 8.0. The diluted medium was loaded onto a Q-sepharose column. The Q-sepharose column was washed with Buffer A (20 mM HEPES, pH 8.0, 50 mM NaCl).
Proteins, were eluted from the Q-sepharose column with Buffer B (20 mM HEPES, pH 8.0, 500 mM NaCl). The protein peaks from the Q-sepharose column were pooled and loaded onto a Ni-NTA agarose column. The Ni-NTA column was then washed with Buffer C (20 mM HEPES, pH 8.0, 500 mM NaCl). Bound proteins were then eluted with Buffer D (Buffer C+250 mM imidazole).
Reactions were initiated by addition of substrate in a 5 μl aliquot resulting in a total volume of 25 μl. After 3 hr at 30° C. reactions were terminated by addition of an equal volume of 2× stop buffer containing 50 mM Tris-HCl pH 8.0, 0.5 M KF, 0.001% Brij-35, 20 μg/ml SA-XL665 (cross-linked allophycocyanin protein coupled to streptavidin; CIS-Bio International, France) (0.5 μg/well). Plates were shaken briefly and spun at 1200×g for 10 seconds to pellet all liquid to the bottom of the plate before the incubation.
Y=Bottom+(Top-Bottom)/(1+10^((LogEC50−X)*Hill Slope)); X is the logarithm of concentration of I, Y is the percent change in ratio and Y starts at bottom and goes to top with a sigmoid shape.

T1 sequence (P56817 22-454): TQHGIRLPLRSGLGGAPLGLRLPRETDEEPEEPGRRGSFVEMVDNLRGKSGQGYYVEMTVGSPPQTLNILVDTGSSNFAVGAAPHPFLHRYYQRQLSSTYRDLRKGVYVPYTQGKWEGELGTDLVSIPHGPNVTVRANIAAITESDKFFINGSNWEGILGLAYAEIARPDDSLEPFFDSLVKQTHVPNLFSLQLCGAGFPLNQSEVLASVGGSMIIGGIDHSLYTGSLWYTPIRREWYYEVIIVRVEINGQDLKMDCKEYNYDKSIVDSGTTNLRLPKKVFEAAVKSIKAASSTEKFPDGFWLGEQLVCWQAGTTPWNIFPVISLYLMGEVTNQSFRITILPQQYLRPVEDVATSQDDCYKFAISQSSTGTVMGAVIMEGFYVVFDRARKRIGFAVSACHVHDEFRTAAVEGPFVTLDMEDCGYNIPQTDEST

Structure (SMILES) | Ki (read-out: BACE-1 Ki) [µM] | Ki [µM]
CN1C(=N)N[C@](C)(c2ccc(F)cc2F)[C@@H](C2CCN(c3ccc(F)cc3)CC2)C1=O | < 5 | 
Cc1cncc(-c2cccc(C3(C)NC(=N)N(C)C3=O)c2)c1 (racemic) | < 5 | 
CN1C(=N)N[C@](C)(c2ccc3c(ccn3C)c2)CC1=O | < 5 | 
CN1C(=N)NC(C)(c2cc(-c3cccc(C#N)c3)cs2)C(CCCc2ccncc2)C1=O (stereo not shown) | < 5 | 
CN1C(=N)N[C@](C)(c2ccc3c(c2)c(Br)cn3C)CC1=O | < 5 | 
CN1C(=N)N[C@](C)(c2c(F)cc(F)cc2F)[C@@H](c2ccc(C(C)(F)F)cc2)C1=O | < 5 | 
CN1C(=N)N[C@](C)(c2c(F)cccc2F)[C@@H](c2ccc(C(F)(F)F)cc2)C1=O | < 5 | 
CN1C(=N)N[C@](CCC2CCCCC2)(C[C@H]2CCC[C@@H](N(C)C)C2)C1=O | < 5 | 
CN1C(=N)N[C@](C)(c2cc(-c3ccc(F)c(C#N)c3)c(F)s2)[C@@H](C2CC2)C1=O | < 5 | 
CN1OCC(C)(c2cc(-c3cccc(C#N)c3)cs2)NC1=N (stereo not shown) | < 5 | 
CS(=O)(=O)N1CCCC(CCN2C(=N)NC(c3ccccc3)(c3ccccc3)C2=O)C1 (racemic) |  | < 5
CCc1cccc(-c2cc([C@]3(C)CC(=O)N(C)C(=N)N3)nn2C)c1 | < 5 | 
CN1C(=N)NC(c2ccccc2)(c2cccc(NC(=O)c3ccoc3)c2)C1=O (racemic) | < 5 | 
CN1C(=N)N[C@@](CCC2CCCCC2)(C[C@H]2CCC[C@@H](Nc3cnc4cc(Cl)ccc4n3)C2)C1=O | < 5 | 
CCc1csc([C@]2(C)CC(=O)N(C)C(=N)N2)c1 | < 5 | 
Cc1c(-c2ccc(F)c(C#N)c2)sc([C@@]2(C)CC(=O)N(C)C(=N)N2)c1Cl | < 5 | 
CN1C(=N)N[C@](C)(c2csc(-c3ccc(F)c(C#N)c3)c2)CC1=O | < 5 | 
COCCN1C(=N)N[C@](C)(c2ccc3sccc3c2)CC1=O | < 5 | 
CC(C)C1(c2cccc(Br)c2)NC(=N)N(C)C1=O (stereo not shown) | < 5 | 
N=C1NC(c2ccccc2)(c2ccccc2)C(=O)N1Cc1ccsc1 | < 5 | 
CCCS(=O)(=O)N1CCC(CN2C(=N)NC(c3ccccc3)(c3ccccc3)C2=O)CC1 [piperidine, 4-[(2-imino-5-oxo-4,4-diphenyl-1-imidazolidinyl)methyl]-1-(propylsulfonyl)-] | < 5 | 
N=C1NC(c2ccccc2)(c2ccccc2)C(=O)N1CC1CCN(C(=O)Nc2cccc(Cl)c2)CC1 | < 5 | 
N=C1NC(c2ccccc2)(c2ccccc2)C(=O)N1CC1CCN(S(=O)(=O)c2ccc3ccccc3c2)CC1 [piperidine, 4-[(2-imino-5-oxo-4,4-diphenyl-1-imidazolidinyl)methyl]-1-(2-naphthalenylsulfonyl)-] | < 5 | 
CCCN(CCC)C(=O)c1ncc(CN2C(=N)NC(c3ccccc3)(c3ccccc3)C2=O)[nH]1 | < 5 | 
CN1C(=N)N[C@](C)(c2cc(-c3ccc(F)nc3)c3sccc3c2)CC1=O | < 5 | 
CN1C(=N)NC(C)(c2cccc(-c3cncc(C#N)c3)c2)C1=O (racemic) | < 5 | 

Structure (SMILES) | Ki (read-out: BACE-1 Ki) [µM] | Ki [µM]
CCN(CC)CCCN1C(=N)NC(c2cccc(-c3cccc(Cl)c3)c2)(C2CC2)C1=O (stereo not shown) [4-imidazolidinone, 5-(3′-chloro[1,1′-biphenyl]-3-yl)-5-cyclopropyl-3-[3-(diethylamino)propyl]-2-imino-] | < 5 | 
CN1C(=N)NC(c2ccccc2)(c2cccc(NCc3ccccc3)c2)C1=O (racemic) | < 5 | 
CN1C(=N)N[C@](C)(c2cc(-c3cc(C#N)ccc3Cl)c3sccc3c2)CC1=O | < 5 | 
CN1C(=N)N[C@](C)(c2ccc3c(cnn3CC3CCCC3)c2)CC1=O | < 5 | 
CN1C(=N)N[C@](C)(c2cc(-c3ccncc3)c3sccc3c2)CC1=O | < 5 | 
CN1C(=N)N[C@](C)(c2cc(-c3cccnc3)cs2)CC1=O | < 5 | 
CN1C(=N)N[C@@](c2cccc(-c3cccnc3F)c2)(C2CC2)C1=O | < 5 | 
CN1C(=N)NC(c2cc(-c3cncc(Cl)c3)cs2)(C2CC2)C1=O (stereo not shown) | < 5 | 
CN1C(=N)N[C@](C)(c2cnc[nH]2)[C@@H](c2cccc(C(C)(F)F)c2)C1=O | < 5 | 
CN1C(=N)NC(C)(c2cccc(-c3cc(Cl)ccc3CNC(=O)c3cccnc3)c2)C1=O (stereo not shown) | < 5 | 
CN1C(=N)N[C@](C)(c2cc3cccc(Br)c3s2)CC1=O | < 5 | 
N=C1NC(c2ccccc2)(c2ccccc2)C(=O)N1CC1CCN(c2ccc3ccccc3n2)CC1 | < 5 | 
CN1C(=N)N[C@@](c2cccc(-c3cc(Cl)cnc3F)c2)(C2CC2)C1=O | < 5 | 
CN1C(=N)N[C@@](c2cccc(-c3cc(Br)ccn3)c2)(C2CC2)C1=O | < 5 | 
COc1cc(C#N)cc(-c2cc([C@@]3(C)NC(=N)N(C)C(=O)[C@@H]3C)sc2C)c1 | < 5 | 
CN1C(=N)N[C@](C)(c2cc(-c3cc(C#N)ccc3O)cs2)CC1=O | < 5 | 
CCS(=O)(=O)Nc1cccc(CN2C(=N)NC(c3ccccc3)(c3ccccc3)C2=O)c1 | < 5 | 
CN1C(=N)N[C@](C)(c2cc(-c3cccc(OC(F)(F)F)c3)ccn2)CC1=O | < 5 | 
CCCC(=O)N1CCC[C@@H](CN2C(=N)NC(c3ccccc3)(c3ccccc3)C2=O)C1 | < 5 | 
C[C@H]1C(=O)N(C)C(=N)N[C@]1(C)c1cc(-c2cc(C#N)cc(C#N)c2)cs1 | < 5 | 
COc1ccccc1C(=O)NCc1ccc(Cl)cc1-c1cccc(C2(C)NC(=N)N(C)C2=O)c1 (stereo not shown) [benzamide, N-[[5-chloro-3′-(2-imino-1,4-dimethyl-5-oxo-4-imidazolidinyl)[1,1′-biphenyl]-2-yl]methyl]-2-methoxy-] | < 5 | 
COCC1CCCN1C(=O)c1cncc(CN2C(=N)NC(c3ccccc3)(C3CC3)C2=O)c1 (stereo not shown) | < 5 | 
N=C1NC(c2ccccc2)(c2ccccc2)C(=O)N1CC1CCN(C(=O)Cc2cccnc2)CC1 | < 5 | 
CN1C(=N)N[C@](C)(c2csc3c(-c4cccc(C#N)c4)cccc23)CC1=O | < 5 | 
CC(=O)N1CCC(CN2C(=N)NC(C)(c3cccc(-c4cnn(C)c4)c3)C2=O)CC1 (stereo not shown) |  | < 5
CN1C(=N)N[C@](C)(c2cc(-c3ccc(Cl)s3)cs2)CC1=O | < 5 | 

Structure (SMILES) | Ki (read-out: BACE-1 Ki) [µM] | Ki [µM]
CC(=O)N1CCC(CN2C(=N)NC(C)(c3cccc(-c4ccoc4)c3)C2=O)CC1 (stereo not shown) |  | < 5
CN1C(=N)N[C@](CCc2ccccc2)(C[C@H]2CCC[C@H](Nc3cccnc3)C2)C1=O | < 5 | 
CN1C(=N)N[C@@](CCC2CCCCC2)(C[C@H]2CCC[C@@H](Nc3ccc4cccc(Cl)c4n3)C2)C1=O | < 5 | 
CN1C(=N)N[C@](C)(c2sccc2Cl)CC1=O | < 5 | 
COc1ccc([C@H]2C(=O)N(C)C(=N)N[C@]2(C)c2cncs2)cc1 | < 5 | 
CN1C(=N)NC(c2cc(-c3cccc(CO)c3)cs2)(C2CC2)C1=O (stereo not shown) | < 5 | 
CN1C(=N)N[C@](CCc2ccccc2)(C[C@H]2CCC[C@@H](Nc3cccnc3)C2)C1=O | < 5 | 
CN1C(=N)N[C@](C)(c2cc(-c3cccnc3)c3sccc3c2)CC1=O | < 5 | 
CN1C(=N)N[C@](C)(C[C@H]2CCC[C@@H](Nc3cnccn3)C2)C1=O | < 5 | 
CN1C(=N)N[C@@]2(CCCc3sc(-c4ccc(F)c(C#N)c4)cc32)CC1=O | < 5 | 
CN1C(=N)N[C@](C)(c2cc(-c3cccc(F)c3)c3sccc3c2)CC1=O | < 5 | 
CN1C(=N)NC(C)(c2cc(-c3cccc(C#N)c3)cs2)C(CC=Cc2ccccc2)C1=O (stereo not shown) | < 5 | 
CN1C(=N)NC(c2ccccc2)(c2cccc(-c3nccnc3Cl)c2)C1=O (racemic) | < 5 | 
CN1C(=N)NC(C)(c2cccc(N3CCC(C#N)C3)c2)CC1=O (stereo not shown) | < 5 | 
Cc1ccc(CN2C(=N)NC(c3ccccc3)(c3ccccc3)C2=O)cc1 | < 5 | 
CN1C(=N)N[C@](CCC2CCCCC2)(C[C@H]2CCC[C@@H](NC(=O)C3CCCC3)C2)C1=O | < 5 | 
CN1C(=N)NC(c2cccc(Br)c2)(C2CCCCC2)C1=O (stereo not shown) [5-(3-BROMOPHENYL)-5-CYCLOHEXYL-2-IMINO-3-METHYL-4-IMIDAZOLIDINONE] | < 5 | 
CN1C(=N)N[C@](C)(c2cc(-c3cccc(Cl)c3)ccn2)CC1=O | < 5 | 
CCCC(=O)Nc1cccc(CN2C(=N)NC(c3ccccc3)(c3ccccc3)C2=O)c1 [BUTANAMIDE, N-[3-[(2-IMINO-5-OXO-4,4-DIPHENYL-1-IMIDAZOLIDINYL)METHYL]PHENYL]-] | < 5 | 
CN1C(=N)N[C@](C)(c2ccc(C#N)s2)[C@@H](c2ccc(C(C)(F)F)cc2)C1=O | < 5 | 
CN1C(=N)NC(C)(c2cc(-c3cccc(C#N)c3)cs2)C(CCCc2ccccc2)C1=O (stereo not shown) | < 5 | 
CN1C(=N)NC(c2ccccc2)(c2cccc(NS(=O)(=O)c3ccccc3)c2)C1=O (racemic) | < 5 | 
CCn1nccc1Nc1cccc(C2(C)NC(=N)N(CC3CCN(C(C)=O)CC3)C2=O)c1 (racemic) |  | < 5
N=C1NC(c2ccccc2)(c2ccccc2)C(=O)N1Cc1cccc(NC(=O)C2CCCC2)c1 | < 5 | 
